From patent US20140037642A1, “METHODS AND COMPOSITIONS RELATING TO INHIBITION OF IGF-1R” (AMGEN INC., priority 2011, published 2014)
Several values for one entry are separate records, joined by “and”; a condition that tells them apart may be missing. Equal values may be shown once. Read-outs that look alike come from different tables or passages of the source.

Experiments:
colorectal cancer (CRC) = conditions: Study Drug 6 mg/kg + panitumumab 6 mg/kg
From the text: Another study was done in subjects with colorectal cancer (CRC).

[1] = test system: metastatic pancreatic cancer patients; experiment: Placebo-controlled, randomized phase 2 study plus gemcitabine; type: in vivo, human; conditions: for 6-Month OS Rate (95% CI) / 12-Month OS Rate (95% CI) / Median OS, Months (95% CI) / Median PFS, Months (95% CI): conatumumab 10 mg/kg Q2W or ganitumab 12 mg/kg Q2W; for Stratified HR (95% CI), OS / Stratified HR (95% CI), PFS: versus placebo plus gemcitabine
Protocol: The primary endpoint was six month overall survival rate.
Key inclusion criteria were histologically or cytologically documented metastatic adenocarcinoma of the pancreas, age eighteen years or older, ECOG PS 0 or 1, adequate hematologic, hepatic, renal, and coagulation function, amylase and lipase≦2.0×ULN, adequately controlled type 1 or 2 diabetes (amended during protocol to fasting blood glucose<[…] only), fasting blood glucose≦[…], HbAlc<8%, and written informed consent.
Key exclusion criteria were uncontrolled cardiac disease and prior chemotherapy or radiation in the adjuvant or metastatic setting.

[2] = test system: metastatic pancreatic cancer patients; conditions: for OS, HR (95% CI) for one unit increment in logAUCss / PFS, HR (95% CI) for one unit increment in logAUCss: univariate Cox model
Protocol: Multivariate analysis was performed to evaluate the effect of exposure on OS and PFS adjusting for potential confounding factors using Cox proportional hazard models with a forward selection technique. All baseline factors were initial candidates in the forward selection model. Only the most statistically significant variables were added to the final model after the forward selection process.
The effect of exposure on the incidence of selected adverse events (hearing and vestibular disorders, hepatic disorders, hyperglycemia, infusion reaction, neutropenia, rash and skin-related toxicity, thrombocytopenia, and venous embolic and thrombotic events) was summarized with descriptive statistics.
The effect of exposure on changes in selected laboratory values (aspartate transaminase, alanine transaminase, fasting glucose, total neutrophils, and platelets) was assessed by linear regression.

[3] = test system: metastatic pancreatic cancer patients; experiment: Overall survival in baseline circulating biomarker subgroups of the phase 2 study; type: in vivo, human; parameters: Median OS: unit not given here
From the text: To establish the relationship between levels of these baseline markers and overall survival, a Cox proportional hazard model was used to calculate hazard ratios (HR) using normalized log transformed marker concentrations. This analysis tests the risk of death associated with a unit increase in the normalized log baseline biomarker and this risk is expressed as a hazard ratio. Because of the small sample size, it is difficult to dissect prognostic associations from relationships that are modified by treatment with ganitumab relative to placebo, i.e., predictive. This is because the addition of treatment effect adds a variable to the analysis that compromises the power of the test masking significant predictive relationships that may exist. However even a prognostic relationship identified in this analysis is important because it informs the hypothesized relationship between circulating bioavailable ligands and the adaptation of the tumor to IGF-1R dependent progression, and in turn sensitivity to inhibitors that block IGF-1R or downstream signaling pathways.
This allows a direct test of the predictive value of using these markers in a dichotomized way to predict OS in pancreatic cancer patients that are treated with inhibitors of IGF-1R.
To represent these relationships Kaplan-Maier plots were generated that show the OS for the high and low subgroups by plotting the fraction of patients in each sub-group that survive against time.

non-CRC tumors = conditions: Study Drug 6 mg/kg + panitumumab 6 mg/kg
[4] = patients with measurable disease at baseline, plus gemcitabine
[5] = plus gemcitabine, listed as ganitumab
[6] = Ganitumab and Placebo (logAUCss = 0)
[7] = multivariate Cox model, ganitumab-treated arm
[8] = Subject #1, Nerve Sheath, 3 mg/Kg
[9] = Subject #4, Colorectal, 10 mg/Kg
[10] = Subject #8, diagnosis Unknown, 1 mg/Kg
[11] = Subject #10, Adenoid R eye, 20 mg/Kg
[12] = Subject #11, Carcinoid, 3 mg/Kg
[13] = Subject #11, Carcinoid, 3 mg/Kg cohort
[14] = twelve subjects, 1 to 20 mg/kg, RECIST

Protocol for tumors in human subjects: Each subject was assigned to one of six dosing cohorts. […] The subjects also received individualized palliative care, as appropriate, to reduce the severity of their symptoms.
Response to treatment was assessed using the Response Evaluation Criteria in Solid Tumors (RECIST) criteria as described in Therasse et al. 2000, J Natl Cancer Inst. […] Briefly, prior to administration of the first dose, each subject was given a computerized tomography (CT) scan to determine the length of the largest measurable tumor along its longest diameter (“Baseline TM (cm)” in Table 9). CT scans were used to measure the same tumors along the same diameter at certain points after initiation of treatment (“Day X Tumor (cm)” in Table 9). Each such measurement was compared to the baseline tumor measurement for the same subject to calculate the percent increase or decrease in tumor size.

Substance: Ganitumab
- Wk 8 change (RECIST) (colorectal cancer (CRC)): −27%
- Wk 8 change (WHO) (colorectal cancer (CRC); CT): −39%
- Best Overall Response: Confirmed CR - n (%) [1, 4]: 0 (0) n (%)
- Best Overall Response: Confirmed PR - n (%) [1, 4]: 4 (10) n (%)
- Best Overall Response: PD - n (%) [1, 4]: 13 (33) n (%)
- Best Overall Response: SD (Includes Unconfirmed PR) - n (%) [1, 4]: 16 (41) n (%)
- Best Overall Response: Unconfirmed PR - n (%) [1, 4]: 0 (0) n (%)
- Best Overall Response: Unknown - n (%) [1, 4]: 6 (15) n (%)
- rate of SD+PR ([1]; plus gemcitabine): 51%
- 6-Month OS Rate (95% CI) ([1]; plus gemcitabine): 57% (41, 70)
- 12-Month OS Rate (95% CI) ([1]; plus gemcitabine): 39% (25, 54)
- Median OS, Months (95% CI) ([1]; plus gemcitabine): 8.7 (5.3, 12.2) Months
- Median PFS, Months (95% CI) ([1]; plus gemcitabine): 5.1 (2.8, 5.8) Months
- 6-Month OS Rate (95% CI) [1, 5]: 57%
- 12-Month OS Rate (95% CI) [1, 5]: 39%
- Median OS, Months (95% CI) [1, 5]: 8.7 Months
- Median PFS, Months (95% CI) [1, 5]: 5.1 Months
- Stratified HR (95% CI), OS [1]: 0.67 (0.41, 1.12)
- Stratified HR (95% CI), PFS [1]: 0.65 (0.41, 1.04)
- Stratified HR (95% CI), OS ([1]; listed as ganitumab): 0.67
- Stratified HR (95% CI), PFS ([1]; listed as ganitumab): 0.65
- OS, HR (95% CI) for one unit increment in logAUCss ([2]; Ganitumab Only): 0.0421 (0.0089, 0.1983)
- PFS, HR (95% CI) for one unit increment in logAUCss ([2]; Ganitumab Only): 0.0611 (0.0160, 0.2327)
- OS, HR (95% CI) for one unit increment in logAUCss [2, 6]: 0.8288 (0.6978, 0.9845)
- PFS, HR (95% CI) for one unit increment in logAUCss [2, 6]: 0.8322 (0.7111, 0.9741)
- Log AUCss HR, effect on Overall Survival [2, 7]: 0.0842
- Log AUCss HR, effect on Progression Free Survival [2, 7]: 0.1355
- Log AUCss Parameter Estimate, effect on Overall Survival [2, 7]: −2.4742
- Log AUCss Parameter Estimate, effect on Progression Free Survival [2, 7]: −1.9986
- difference in median OS, ganitumab treatment arm versus placebo arm ([3]; Free IGF-1 high subgroup): 7.59 months
- Median OS ([3]; IGF-2 High (>=median)): 368
- OS HR, treatment vs placebo ([3]; IGF-2 High (>=median)): 0.24
- Median OS ([3]; IGF-2 Low (<median)): 217.5
- OS HR, treatment vs placebo ([3]; IGF-2 Low (<median)): 0.95
- Median OS ([3]; IGF-BP1 High (>=median)): 170
- OS HR, treatment vs placebo ([3]; IGF-BP1 High (>=median)): 0.5
- OS HR, treatment vs placebo ([3]; IGF-BP1 Low (<median)): 0.41
- Median OS ([3]; IGF-BP2 High (>=median)): 165
- OS HR, treatment vs placebo ([3]; IGF-BP2 High (>=median)): 0.69
- Median OS ([3]; IGF-BP2 Low (<median)): 487
- OS HR, treatment vs placebo ([3]; IGF-BP2 Low (<median)): 0.19
- Median OS ([3]; IGF-BP3 High (>=median)): 487
- OS HR, treatment vs placebo ([3]; IGF-BP3 High (>=median)): 0.28
- Median OS ([3]; IGF-BP3 Low (<median)): 168
- OS HR, treatment vs placebo ([3]; IGF-BP3 Low (<median)): 0.94
- Median OS ([3]; IGF-BP4 High (>=median)): 368
- OS HR, treatment vs placebo ([3]; IGF-BP4 High (>=median)): 0.39
- Median OS ([3]; IGF-BP4 Low (<median)): 174.5
- OS HR, treatment vs placebo ([3]; IGF-BP4 Low (<median)): 0.63
- Median OS ([3]; Total IGF-1 High (>=median)): 487
- OS HR, treatment vs placebo ([3]; Total IGF-1 High (>=median)): 0.25
- Median OS ([3]; Total IGF-1 Low (<median)): 142
- OS HR, treatment vs placebo ([3]; Total IGF-1 Low (<median)): 0.59
- time to significant symptomatic relief after the first dose (tumors in human subjects; CR subject, Ewing's sarcoma, 12 mg/kg): two
- response according to RECIST at day 434 (tumors in human subjects; CR subject, Ewing's sarcoma, 12 mg/kg at 14 day intervals): CR (100% reduction in tumor dimension)
- PET scan, uptake of labeled glucose by tumor (tumors in human subjects; CR subject, Ewing's sarcoma, 12 mg/kg, day 50): no detectable uptake of labeled glucose
- decrease in tumor size from baseline (RECIST) (tumors in human subjects; CR subject, Ewing's sarcoma, 12 mg/kg, day 50, CT scan): 78%
- maximum RECIST tumor dimension reduction (tumors in human subjects; PR subject, mid gut carcinoid tumor, 3 mg/kg at 14 day intervals): 63%
- RECIST tumor dimension decrease (tumors in human subjects; PR subject, mid gut carcinoid tumor, 3 mg/kg, after 33 weeks in the trial): 48%
- RECIST tumor dimension (tumors in human subjects; PR subject, mid gut carcinoid tumor, 3 mg/kg, after 33 weeks in the trial, baseline 13.1 cm): 6.8 cm
- Day 50 Tumor (cm) (tumors in human subjects; [8]): 1.4 cm
- Day 50 Tumor, percent change vs baseline (tumors in human subjects; [8]): (+27%)
- Day 50 Tumor (cm) (tumors in human subjects; Subject #2, Prostate, 10 mg/Kg): 18.8 cm
- Day 50 Tumor, percent change vs baseline (tumors in human subjects; Subject #2, Prostate, 10 mg/Kg): (+21%)
- Day 50 Tumor (cm) (tumors in human subjects; Subject #3, Ovarian, 20 mg/Kg): 18.6 cm
- Day 50 Tumor, percent change vs baseline (tumors in human subjects; Subject #3, Ovarian, 20 mg/Kg): (+17%)
- Day 50 Tumor (cm) (tumors in human subjects; [9]): 45.3 cm
- Day 50 Tumor, percent change vs baseline (tumors in human subjects; [9]): (+7%)
- Day 50 Tumor (cm) (tumors in human subjects; Subject #5, Thymus, 1 mg/Kg): 10.4 cm
- Day 50 Tumor, percent change vs baseline (tumors in human subjects; Subject #5, Thymus, 1 mg/Kg): (+4%)
- Day 50 Tumor (cm) (tumors in human subjects; Subject #6, Melanoma, 10 mg/Kg): 28.4 cm
- Day 50 Tumor, percent change vs baseline (tumors in human subjects; Subject #6, Melanoma, 10 mg/Kg): (+1%)
- Day 50 Tumor (cm) (tumors in human subjects; Subject #7, Adenoid, 1 mg/Kg): 30.9 cm
- Day 50 Tumor, percent change vs baseline (tumors in human subjects; Subject #7, Adenoid, 1 mg/Kg): (−1%)
- Day 50 Tumor (cm) (tumors in human subjects; [10]): 18.2 cm
- Day 50 Tumor, percent change vs baseline (tumors in human subjects; [10]): (−2%)
- Day 106 Tumor (cm) (tumors in human subjects; [10]): 18.9 cm
- Day 106 Tumor, percent change vs baseline (tumors in human subjects; [10]): (+2%)
- Day 162 Tumor (cm) (tumors in human subjects; [10]): 23.2 cm
- Day 162 Tumor, percent change vs baseline (tumors in human subjects; [10]): (+25%)
- Day 50 Tumor (cm) (tumors in human subjects; Subject #9, Breast, 20 mg/Kg): 4.7 cm
- Day 50 Tumor, percent change vs baseline (tumors in human subjects; Subject #9, Breast, 20 mg/Kg): (−2%)
- Day 50 Tumor (cm) (tumors in human subjects; [11]): 35.2 cm
- Day 50 Tumor, percent change vs baseline (tumors in human subjects; [11]): (−9%)
- Day 50 Tumor (cm) (tumors in human subjects; [12]): 14 cm
- Day 50 Tumor, percent change vs baseline (tumors in human subjects; [12]): (+7%)
- Day 106 Tumor (cm) (tumors in human subjects; [12]): 11 cm
- Day 106 Tumor, percent change vs baseline (tumors in human subjects; [12]): (−16%)
- Day 169 Tumor (cm) (tumors in human subjects; [12]): 10.6 cm
- Day 169 Tumor, percent change vs baseline (tumors in human subjects; [12]): (−19%)
- Day 225 Tumor (cm) (tumors in human subjects; [12]): 8.4 cm
- Day 225 Tumor, percent change vs baseline (tumors in human subjects; [12]): (−36%)
- Day 281 Tumor (cm) (tumors in human subjects; [13]): 8.2 cm
- Day 281 Tumor, percent change vs baseline (tumors in human subjects; [13]): (−37%)
- Day 338 Tumor (cm) (tumors in human subjects; [13]): 6.8 cm
- Day 338 Tumor, percent change vs baseline (tumors in human subjects; [13]): (−48%)
- Day 50 Tumor (cm) (tumors in human subjects; Subject #12, Ewing's, 12 mg/Kg): 2.2 cm
- Day 50 Tumor, percent change vs baseline (tumors in human subjects; Subject #12, Ewing's, 12 mg/Kg): (−78%)
- Day 85 Tumor, percent change vs baseline (tumors in human subjects; Subject #12, Ewing's, 12 mg/Kg): (−100%)
- Day 85 Tumor (cm) (tumors in human subjects; Subject #12, Ewing's, 12 mg/Kg, listed as Study Drug): 0 cm and 0.0 cm
- number of subjects with a reduction in tumor size of at least 30% (tumors in human subjects; [14]): two
- number of subjects with best response progressive disease (PD) (tumors in human subjects; [14]): two
- best response (WHO criteria) (non-CRC tumors; subject with a GE Junction tumor): stable disease
- best response (WHO criteria) (non-CRC tumors; subject with a pancreatic tumor): stable disease
- best response (WHO criteria) (non-CRC tumors; subject with a thyroid tumor): progressive disease
